Consider 11 compounds from patent publication US4740505A, “Pyridazinyloxy (or thio) phenyl phosphates” (priority 1985, dated 1988).

As a reminder, the mortality is the percentage killed. By LD50 is commonly meant the dose at which mortality reaches 50%. The low end stands for a more toxic substance, the high end for a less toxic substance.

One data set has as its system Tetranychus urticae. Briefly: Effectiveness on Tetranychus urticae (rating of effects on kidney bean seedlings). As to conditions: 500 ppm, 20 ml, rating based on percent decrease; for Rating of effect Day-2: 2nd day after treatment; for Rating of effect Day-7: 7th day after treatment. The data set is classed as in vivo. As to the method: Effectiveness on Tetranychus urticae
Each of the compounds listed in the following table is processed into an emulsifiable concentrate in accordance with the formulation of Example 6. The emulsifiable concentrate is diluted with water (Dyne®, a spreading agent produced by Takeda Chemical Ind. Ltd., as diluted 3,000-fold) to prepare a 500 ppm aqueous solution. Ten female adult of Tetranychus urticae are put into each kidney been seedling raised in a jiffy pot (6 cm in diameter), and left in a glass house at 28° C. for 24 hours. Each pot is taken out of the glass house; 20 ml of the aqueous solution as prepared above is spread over each kidney bean seedling. The jiffy pots are laid in the glass house again. Larvae and adult which are alive on the leaves are counted at the 2nd and 7th days after the spreading treatment. The test is repeated two times. The degrees are determined on the basis of percent decrease.

A further data set has as its system Spodoptera litura. Briefly: Effectiveness on Spodoptera litura (mortality of 3rd instar larvae on sprayed soybean leaves). The data set is classed as in vivo. As to the method: Effectiveness of Spondoptera litura
Each of the test compounds listed in the following table is processed into an emulsifiable concentrate in accordance with the formulation of Example 6. The emulsifiable concentrate is diluted with water (Dyne®, a spreading agent produced by Takeda Chemical Ind. Ltd., as diluted 3,000-fold) to prepare a 100 ppm aqueous solution.
Using a spray gun (nozzle pressure of 1 kg/cm^2 gauge), 20 ml of the aqueous 100 ppm solution is sprayed over soybean seedlings in a spraying chamber (on 10th day after germination) which have been raised in jiffy pots (6 cm in diameter). Two main leaves are respectively cut off from the seedlings 2 hours and 6 days after the spraying. Each of the leaves is put into an ice cream cup (diameter: 6 cm, depth: 4 cm), and 10 larvae of Spodoptera litura at the 3rd instar are put into each of the cups. The cups are left in a room at 25° C.; after 48 hours, dead larvae are counted. The test is repeated two times. The results are shown in terms of mortality (%) in Table 6. [formula]
The following compounds are used for controls.
The same compounds are used for controls also in the following Test Examples.

The nature of data set [1]: Toxicological test: oral acute toxicity in mice. More on the design: species or system mice (ddY-SLC strained male). As to conditions: mouse, in vivo, five-week aged ddY-SLC male mice.
Setting [2] is: 100 ppm spray, leaves cut 6 days after spraying, dead larvae counted after 48 hours, 25° C., read-out: Mortality 6th day after spraying.
Setting [3] is: 48 h, read-out: Mortality 2 hours after spraying.

Like-named read-outs stand apart in the source and are kept apart here.

Consider `CCCSP(=S)(OCC)Oc1ccccc1Oc1ccc(Br)nn1` (stereo not shown) [compound 25], for which the “Rating of effect Day-2” value with Tetranychus urticae was 3 (≥90). Moreover, the “Rating of effect Day-7” value in the data set with Tetranychus urticae is 3 (≥90). Moreover, the mortality at 100 ppm with Spodoptera litura (setting [2]) and with Spodoptera litura (setting [3]) was 100% in each case. Also, the LD50 in data set [1] is > 300 mg/kg.

For `CCCSP(=S)(OCC)Oc1ccccc1Oc1ccc(OC)nn1` (stereo not shown) [Compound No. 40], in the data set with Tetranychus urticae, the “Rating of effect Day-2” value was 3 (≥90). Also, in the data set with Tetranychus urticae, the “Rating of effect Day-7” value is listed as 3 (≥90). Besides, the mortality at 100 ppm in the data set with Spodoptera litura (setting [2]) and in the data set on Spodoptera litura (setting [3]) was 100% each time. Also, the LD50 in data set [1] is > 300 mg/kg.

`CCCSP(=S)(OCC)Oc1ccc(Oc2ccc(Cl)nn2)cc1` (stereo not shown) [Compound No. 3]: in the data set with Tetranychus urticae, the “Rating of effect Day-2” value is given as 3 (≥90) and the “Rating of effect Day-7” value was 3 (≥90). For the same compound, the mortality at 100 ppm in the data set on Spodoptera litura (setting [2]) was determined as 90%. For the same compound, the mortality at 100 ppm in the data set on Spodoptera litura (setting [3]) turned out to be 100%. In data set [1], the LD50 was ~300 mg/kg.

For the compound `CCCSP(=O)(OCC)Oc1ccccc1Sc1ccc(Br)nn1` (stereo not shown) [compound 26], in the data set with Tetranychus urticae, the “Rating of effect Day-2” value was 3 (≥90) and the “Rating of effect Day-7” value is 3 (≥90). In addition, the mortality at 100 ppm in the data set on Spodoptera litura (setting [2]) is 95%. Also, the mortality at 100 ppm in the data set with Spodoptera litura (setting [3]) came to 100%. Further, the LD50 in data set [1] was ~300 mg/kg.

Regarding `CCCSP(=O)(OCC)Oc1cccc(Sc2ccc(Cl)nn2)c1` (stereo not shown) [compound 19], in the data set on Tetranychus urticae, the “Rating of effect Day-2” value is 3 (≥90) and the “Rating of effect Day-7” value is 3 (≥90). For the same compound, the mortality at 100 ppm in the data set with Spodoptera litura (setting [2]) worked out at 90%. For the same compound, the mortality at 100 ppm in the data set on Spodoptera litura (setting [3]) was 100%. Also, the LD50 in data set [1] is > 300 mg/kg.

Consider `CCCSP(=S)(OCC)Oc1ccc(Oc2ccc(Cl)nn2)c(C)c1` (stereo not shown) [compound 16], for which, in the data set with Tetranychus urticae, the “Rating of effect Day-2” value is recorded as 3 (≥90) and the “Rating of effect Day-7” value was 3 (≥90). Besides, the mortality at 100 ppm in the data set on Spodoptera litura (setting [2]) is 100%. Further, in the data set on Spodoptera litura (setting [3]), the mortality at 100 ppm came out at 100%. Moreover, in data set [1], the LD50 is > 300 mg/kg.

With `CCCSP(=S)(OCC)Oc1ccccc1Oc1ccc(SCC)nn1` (stereo not shown) [compound 42], the “Rating of effect Day-2” value in the data set on Tetranychus urticae is recorded as 3 (≥90). The “Rating of effect Day-7” value in the data set with Tetranychus urticae is given as 3 (≥90). Besides, the mortality at 100 ppm in the data set with Spodoptera litura (setting [2]) and in the data set with Spodoptera litura (setting [3]) was 100% in each case. In addition, the LD50 in data set [1] is > 300 mg/kg.

Take `CCCSP(=O)(OCC)Oc1ccccc1Oc1ccc(Br)nn1` (stereo not shown) [compound 24]: in the data set with Tetranychus urticae, the “Rating of effect Day-2” value was 3 (≥90) and the “Rating of effect Day-7” value was 3 (≥90). Further, in the data set with Spodoptera litura (setting [2]), the mortality at 100 ppm came to 100%. Besides, the mortality at 100 ppm with Spodoptera litura (setting [3]) was found to be 100%. In addition, in data set [1], the LD50 is ~300 mg/kg.

As to `CCCSP(=S)(OCC)Oc1ccccc1Oc1ccc(C)nn1` (stereo not shown) [compound 38], in the data set on Tetranychus urticae, the “Rating of effect Day-2” value was 3 (≥90) and the “Rating of effect Day-7” value is on record as 3 (≥90). In the data set on Spodoptera litura (setting [2]), the mortality at 100 ppm is 100%. In the data set on Spodoptera litura (setting [3]), the mortality at 100 ppm was found to be 100%. For the same compound, the LD50 in data set [1] is > 300 mg/kg.

`CCCSP(=S)(OCC)Oc1cccc(Sc2ccc(Cl)nn2)c1` (stereo not shown) [compound 20]: in the data set with Tetranychus urticae, the “Rating of effect Day-2” value was 3 (≥90) and the “Rating of effect Day-7” value is reported as 3 (≥90). For the same compound, the mortality at 100 ppm in the data set with Spodoptera litura (setting [2]) came to 90%. Further, the mortality at 100 ppm in the data set with Spodoptera litura (setting [3]) came out at 100%. Moreover, the LD50 in data set [1] was > 300 mg/kg.

Turning to `CCCSP(=O)(OCC)Oc1ccccc1Oc1ccc(OC)nn1` (stereo not shown) [Compound No. 39, O-Ethyl-S-n-propyl-O-[2-(3-methoxypyridazinyl-6-oxy)phenyl]phosphorothioate], the “Rating of effect Day-2” value in the data set with Tetranychus urticae is reported as 3 (≥90). Also, the “Rating of effect Day-7” value in the data set with Tetranychus urticae was 3 (≥90). Further, the mortality at 100 ppm with Spodoptera litura (setting [2]) and with Spodoptera litura (setting [3]) was 100% throughout. For the same compound, in data set [1], the LD50 was ~300 mg/kg.
